Key:
[1] = target: T1, human motilin receptor (Homo sapiens, UniProt O43193); assay: Motilin receptor activation assay (aequorin luminescence); assay type: cell-based; conditions: motilin receptor agonism
T1 construct: expressed in transfected cells; host or cells: HEK293 (ATCC CRL-1573), transiently or stably transfected with pkos127-159 and pmtAEQ
Excerpt: A gene encoding the target receptor is cloned and placed into a mammalian expression vector such as pcDNA3.1. The gene may be synthetic or naturally derived. Next, pmtAEQ, an aequorin expression plasmid available from Molecular Probes, and the receptor expression construct are transfected into HEK293 cells using a commercially available transfection kit such as Lipofectamine Plus (Gibco BRL). At this point, a stable cell line may be selected from the transfection mix using common techniques, or the heterologous mixture obtained from transient transfection may be used directly. […] A 100 uL aliquot of cells is added to each well, and following each addition, the integrated luminescence is measured for 30-60 seconds and is taken as the agonist response. Next, 100 uL of 1% triton X-100 in PBS is injected into each well, and the integrated luminescence is measured a second time over 30-60 seconds and is taken as the triton response. A value F is calculated as equaled to the agonist response divided by the sum of the agonist response and the triton response. […]
(§1) Flasks containing HEK293 cells either transiently or stably expressing the motilin receptor and aequorin were used in receptor activation assays. Cells were grown to 80-100% confluence in T175 flasks containing MEMalpha medium with 10% v/v fetal bovine serum, harvested by trypsinization, and counted using a hemocytometer. […]

[2] = target: T1, human motilin receptor; assay: Efficacy index: ratio of desensitization value to potency value, motilin receptor and aequorin co-expressed; assay type: cell-based; conditions: ratio of desensitization value (IC50) to potency value (EC50); cells co-expressing motilin receptor and aequorin
Excerpt: In one aspect of the present invention, the comparison of the potency value and the desensitization value is accomplished by calculating a ratio of the desensitization value to the potency value. This ratio is termed the “efficacy index”. […] In other words, because the concentration required for the desired biological response is also the concentration that induces desensitization, the compound is not likely to be therapeutically effective if the desired response is receptor activation. Under these circumstances, the concentration required for the desired biological response should be well below the concentration that induces desensitization. […]
as §1
Stock solutions (20 mM) of test compounds were made in ethanol and diluted 100-fold into PBS. […] One of the injectors was used to add 100 uL of the cell suspension (˜5×10^4 to 10^5) to each well, and the bioluminescence response was measured over the course of 30-60 seconds. […] The F value of the cells to each test compound was calculated using equation 1, and data were fit to equation 2 to obtain EC50 values for the test compounds. […]

[3] = Acid stability; assay type: physicochemical; conditions: stomach environment
[4] = treating gastroesophageal reflux disease; Van Her Waarde et al. 2000; cited from earlier work
[5] = target: T2, C3a receptor (Homo sapiens, UniProt Q16581); assay: Ca2+ mobilization via FLIPR; assay type: cell-based
T2 construct: expressed in transfected cells; host or cells: HEK 293, transient transfection, with or without promiscuous G protein Galpha16
T2 sequence (Q16581 1-482): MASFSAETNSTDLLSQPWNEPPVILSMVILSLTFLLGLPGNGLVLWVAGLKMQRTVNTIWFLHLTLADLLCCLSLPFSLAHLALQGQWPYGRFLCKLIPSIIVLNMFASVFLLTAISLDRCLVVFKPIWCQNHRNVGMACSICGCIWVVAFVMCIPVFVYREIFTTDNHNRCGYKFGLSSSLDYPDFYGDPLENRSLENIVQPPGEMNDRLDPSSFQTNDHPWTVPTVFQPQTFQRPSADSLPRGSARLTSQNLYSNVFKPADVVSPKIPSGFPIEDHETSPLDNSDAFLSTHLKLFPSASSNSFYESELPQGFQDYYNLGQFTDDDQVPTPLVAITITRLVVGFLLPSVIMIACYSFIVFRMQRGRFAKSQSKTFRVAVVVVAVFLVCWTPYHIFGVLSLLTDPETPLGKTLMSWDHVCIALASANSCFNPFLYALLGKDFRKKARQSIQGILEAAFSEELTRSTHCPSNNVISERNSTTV
Procedure: 1. 24 h after receptor transfection harvest and plate cells into poly-D-lysine-coated 96-well black-walled/clear bottom microtiter plates (Becton Dickinson Labware) at 3×10^4 cells per well.
2. After 18 to 24 h aspirate off medium and add 100 μl of fresh EMEM containing 4 μM Fluo-3/AM (Molecular Probes; prepare stock solution at 2 mM in DMSO containing 20% pluronic acid), 0.1% BSA, and […] to each well and incubate for 1 h at 37° C.
3. Aspirate medium and replace with 100 μl of the same medium, but without Fluo-3/AM, and incubate for 10 min at 37° C. Wash cells three times with a Denley cell washer (Labsystems) with Krebs Ringer Henscleit (KRH; 118 mM NaCl, 4.6 mM KCl, […] NaHCO3, 1 mM KH2PO4, 1.1 mM glucose, 1.1 mM MgCl2) containing 0.1% BSA, […], and 20 mM HEPES pH 7.4 (buffer A). After the last wash aspirate down to a final volume of 100 μl.
4. Prepare plates of potential ligands, tissue extracts, or compound libraries in 96-well polypropylene microplates at three times the final concentration in buffer A and warm to 37° C.
5. Place microplates containing Fluo-3 loaded cells and the ligand plates in FLIPR and monitor. At initiation of the fluorescence recording read measurements every 1 s for 60 s and then every 3 s for the following 60 s. […] FLIPR software normalizes fluorescent readings to give equivalent readings for all wells at zero time.

T1 sequence (O43193 whole entry): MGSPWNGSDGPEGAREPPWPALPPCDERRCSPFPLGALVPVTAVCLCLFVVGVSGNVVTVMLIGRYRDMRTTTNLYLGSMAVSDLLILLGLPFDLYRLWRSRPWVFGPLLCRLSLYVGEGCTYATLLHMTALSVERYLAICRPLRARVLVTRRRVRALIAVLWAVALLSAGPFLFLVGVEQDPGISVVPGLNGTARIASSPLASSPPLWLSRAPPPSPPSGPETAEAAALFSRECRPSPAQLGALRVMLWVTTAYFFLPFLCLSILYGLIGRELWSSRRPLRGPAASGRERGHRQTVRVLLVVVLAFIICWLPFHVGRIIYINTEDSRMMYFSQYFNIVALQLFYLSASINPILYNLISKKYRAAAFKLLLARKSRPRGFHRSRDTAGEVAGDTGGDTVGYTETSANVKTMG

CC[C@H]1OC(=O)[C@H](C)[C@@H](OC2C[C@@](C)(OC)[C@@H](O)[C@H](C)O2)[C@H](C)[C@@H](OC2O[C@H](C)C[C@H](N(C)C)[C@H]2O)[C@]2(C)CC(C)=C(O2)[C@H](C)[C@@H](O)[C@]1(C)O (stereo partly drawn) [erythromycin 6,9-enol ether]
potency (EC50) [1]: nanomolar range | efficacy index [2]: greater than 20,000 | stability in acid [3]: unstable in acid

CC[C@H]1OC(=O)[C@H](C)[C@@H](OC2C[C@@](C)(OC)C[C@H](C)O2)[C@H](C)[C@@H](OC2O[C@H](C)C[C@H](N(C)CC)[C@H]2O)[C@]2(C)CC(C)=C(O2)[C@H](C)[C@@H](O)[C@H]1C (stereo partly drawn) [ABT-229]
clinical efficacy [4]: lack of efficacy

C3a: ligand of the C3a receptor
Ca2+ mobilization response ([5]; C3a receptor co-expressed with Gα16 in HEK 293 cells): robust responses | Ca2+ mobilization response ([5]; C3a receptor expressed alone in HEK 293 cells): weak or no Ca^2+ mobilization responses

— patent US6875576B2, “Method for evaluating therapeutic efficacy” (Kosan Biosciences, Inc., priority 2001, dated 2005)
